Patent US8309546B2, “Morpholinopurine derivatives” (Daiichi Sankyo Company, Limited, priority 2008, dated 2012)

System: human endometrial cancer cell strain AN3CA tumor
Test: Anti-tumor effect assay using mouse subcutaneous transplantation model
Type: in vivo, female nude mouse
Details: AN3-CA, oral, tumor weight vs negative control, read-out: Anti-tumor effect (tumor growth inhibition rate); for inhibition in vivo at 2.5 mg/kg/day / inhibition in vivo at 5 mg/kg/day / inhibition in vivo at 10 mg/kg/day: 8 or 5 consecutive days depending on compound
Method: A tumor section was prepared from a human endometrial cancer cell strain AN3CA tumor mass formed in a female nude mouse as a subcutaneously transplanted tumor and then a xenograft model was prepared by transplanting the tumor section into female nude mouse. Tumor-bearing mice having an estimated tumor volume (long diameter×short diameter×short diameter/2) of 80 to 200 mm^3 were divided, so that there should be no significant difference in the mean estimated tumor volume and body weight as compared with the negative control group to perform a test. The test compound was orally administered at a predetermined dose for 8 consecutive days. On the following day of the final administration day, tumor-bearing mice were anesthetized and exsanguinated to death and a tumor mass was isolated to measure tumor weight (the compounds of Examples 1, 3, 6, 8, 11, 12, and 14). Furthermore, as a similar test, the test compound was orally administered for 5 consecutive days, animals were sacrificed on the final administration day, and tumor weight was measured (the compounds of Examples 60, 63, 75, 77, 79, 89, 92, 107, 108, 109, 110, and 127).
In all the tests, anti-tumor effect was calculated by the following formula. {1−(tumor weight in compound treatment group/tumor weight in negative control group)}×100

SMILES	inhibition in vivo at 2.5 mg/kg/day [%]	inhibition in vivo at 5 mg/kg/day [%]	other results
CC(C)Cn1c(N2CCN(C=O)[C@H](C)C2)nc2c(N3CCOCC3)nc(-c3cnc(N)nc3)nc21 [Example 100, (2R)-4-[2-(2-Aminopyrimidin-5-yl)-9-isobutyl-6-morpholin-4-yl-9H-purin-8-yl]-2-methylpiperazine-1-carboaldehyde]	53	62	
CC(=O)N1CCN(c2nc3c(N4CCOCC4)nc(-c4cnc(N)nc4)nc3n2CC(C)C)C[C@@H]1C [Example 101, 5-{8-[(3S)-4-Acetyl-3-methylpiperazin-1-yl]-9-isobutyl-6-morpholin-4-yl-9H-purin-2-yl}pyrimidin-2-amine]	42	69	
CC(C)Cn1c(N2CCN(C=O)[C@@H](C)C2)nc2c(N3CCOCC3)nc(-c3cnc(N)nc3)nc21 [Example 102, (2S)-4-[2-(2-Aminopyrimidin-5-yl)-9-isobutyl-6-morpholin-4-yl-9H-purin-8-yl]-2-methylpiperazine-1-carboaldehyde]	54	64	
CNc1ncc(-c2nc(N3CCOCC3)c3nc(N4CCN(C(C)=O)[C@@H](C)C4)n(CC(F)(F)F)c3n2)cn1 [Example 107, 5-{8-[(3S)-4-Acetyl-3-methylpiperazin-1-yl]-6-morpholin-4-yl-9-(2,2,2-trifluoroethyl)-9H-purin-2-yl}-N-methylpyrimidin-2-amine]		76	inhibition in vivo at 1.25 mg/kg/day (120 h, 1.25 mg/kg/day, 5 consecutive days): 46%
CNc1ncc(-c2nc(N3CCOCC3)c3nc(N4CCN(C(C)=O)[C@H](C)C4)n(CC(F)(F)F)c3n2)cn1 [Example 108, 5-{8-[(3R)-4-Acetyl-3-methylpiperazin-1-yl]-6-morpholin-4-yl-9-(2,2,2-trifluoroethyl)-9H-purin-2-yl}-N-methylpyrimidin-2-amine]	53		inhibition in vivo at 10 mg/kg/day: 82%
C[C@H](O)C(=O)N1CCN(c2nc3c(N4CCOCC4)nc(-c4cnc(N)nc4)nc3n2CC(F)(F)F)C[C@@H]1C [Example 109, (2S)-1-{(2S)-4-[2-(2-Aminopyrimidin-5-yl)-6-morpholin-4-yl-9-(2,2,2-trifluoroethyl)-9H-purin-8-yl]-2-methylpiperazin-1-yl}-1-oxopropan-2-ol]			inhibition in vivo at 1.875 mg/kg/day (120 h, 5 consecutive days): 42%; inhibition in vivo at 7.5 mg/kg/day (120 h, 5 consecutive days): 80%
C[C@H](O)C(=O)N1CCN(c2nc3c(N4CCOCC4)nc(-c4cnc(N)nc4)nc3n2CC(F)(F)F)C[C@H]1C [Example 110, (2S)-1-{(2R)-4-[2-(2-Aminopyrimidin-5-yl)-6-morpholin-4-yl-9-(2,2,2-trifluoroethyl)-9H-purin-8-yl]-2-methylpiperazin-1-yl}-1-oxopropan-2-ol]			inhibition in vivo at 1.875 mg/kg/day (120 h, 5 consecutive days): 43%; inhibition in vivo at 7.5 mg/kg/day (120 h, 5 consecutive days): 73%
C[C@H]1COCCN1c1nc(-c2cnc(N)nc2)nc2c1nc(N1CCN(S(C)(=O)=O)CC1)n2CC(F)(F)F [Example 127, 5-{6-[(3S)-3-Methylmorpholin-4-yl]-8-[4-(methylsulfonyl)piperazin-1-yl]-9-(2,2,2-trifluoroethyl)-9H-purin-2-yl}pyrimidin-2-amine]		69	inhibition in vivo at 10 mg/kg/day: 79%
